Results: ChEMBL document CHEMBL6182851, “Discovery of dual CDK4/6 and BRD4 inhibitor as apoptosis and autophagy inducers against NSCLC in vitro and in vivo” (Eur J Med Chem, 2025)
Calls of active or inactive are those of the source. The rule behind the calls is not given here.

Key:
[1] = test system: NCI-H460; test: Induction of autophagy in human NCI-H460 cells assessed as reduction in intracellular mTOR protein expression; type: functional, cell-based
[2] = biological target: T1, Cyclin-dependent kinase 4 (Homo sapiens, UniProt P11802); test: Inhibition of CDK4 (unknown origin)
[3] = test system: L02; test: Cytotoxicity against human LO2 cells assessed as inhibition of cell viability at 5 to 10 uM incubated for 48 hrs by MTT assay; type: toxicity, cell-based; conditions: l02, 48 h, dose 5-10 µM
[4] = biological target: T1, Cyclin-dependent kinase 4; test: Binding affinity to CDK4 in human NCI-H460 cells assessed as increase in thermal stabilization at 38 to 62 degreeC at 1 uM pretreated for 6 hrs followed by heat exposure for 3 mins and subsequently incubated at room temperature for 3 mins by CETSA; type: cell-based; conditions: time 366.0 min
[5] = test system: NCI-H460; test: Antiproliferative activity against human NCI-H460 cells assessed as decrease in c-myc expression at 2 to 8 uM treated for 24 hrs by immunofluorescence analysis; type: functional, cell-based; conditions: dose 2-8 µM
[6] = test system: NCI-H460; test: Induction of apoptosis in human NCI-H460 cells assessed as early apoptotic cells at 2 uM incubated for 48 hrs by Annexin V-PE/7-AAD staining based flow cytometric analysis (reference value: 3.58 %); type: functional
[7] = test system: NCI-H460; test: Induction of apoptosis in human NCI-H460 cells assessed as necrotic cells at 2 uM incubated for 48 hrs by Annexin V-PE/7-AAD staining based flow cytometric analysis (reference value: 0.79 %); type: functional
[8] = test system: NCI-H460; test: Induction of apoptosis in human NCI-H460 cells assessed as early apoptotic cells at 4 uM incubated for 48 hrs by Annexin V-PE/7-AAD staining based flow cytometric analysis (reference value: 3.58 %); type: functional
[9] = test system: NCI-H460; test: Induction of apoptosis in human NCI-H460 cells assessed as necrotic cells at 4 uM incubated for 48 hrs by Annexin V-PE/7-AAD staining based flow cytometric analysis (reference value: 0.79 %); type: functional
[10] = test system: NCI-H460; test: Induction of apoptosis in human NCI-H460 cells assessed as late apoptotic cells at 8 uM incubated for 48 hrs by Annexin V-PE/7-AAD staining based flow cytometric analysis (reference value: 3.76 %); type: functional
[11] = test system: NCI-H460; test: Induction of apoptosis in human NCI-H460 cells assessed as necrotic cells at 8 uM incubated for 48 hrs by Annexin V-PE/7-AAD staining based flow cytometric analysis (reference value: 0.79 %); type: functional
[12] = test system: NCI-H460; test: Induction of cell cycle arrest in human NCI-H460 cells assessed as accumulation of cells at G1 phase at 2 uM incubated for 48 hrs by PI staining based flow cytometric analysis (reference value: 56.7 %); type: functional
[13] = test system: NCI-H460; test: Induction of cell cycle arrest in human NCI-H460 cells assessed as accumulation of cells at G2 phase at 2 uM incubated for 48 hrs by PI staining based flow cytometric analysis (reference value: 11.0 %); type: functional
[14] = test system: NCI-H460; test: Induction of cell cycle arrest in human NCI-H460 cells assessed as accumulation of cells at G1 phase at 4 uM incubated for 48 hrs by PI staining based flow cytometric analysis (reference value: 56.7 %); type: functional
[15] = test system: NCI-H460; test: Induction of cell cycle arrest in human NCI-H460 cells assessed as accumulation of cells at G2 phase at 4 uM incubated for 48 hrs by PI staining based flow cytometric analysis (reference value: 11.0 %); type: functional
[16] = test system: NCI-H460; test: Induction of cell cycle arrest in human NCI-H460 cells assessed as accumulation of cells at G1 phase at 8 uM incubated for 48 hrs by PI staining based flow cytometric analysis (reference value: 56.7 %); type: functional
[17] = test system: NCI-H460; test: Induction of cell cycle arrest in human NCI-H460 cells assessed as accumulation of cells at S phase at 8 uM incubated for 48 hrs by PI staining based flow cytometric analysis (reference value: 33.3 %); type: functional
[18] = test system: NCI-H460; test: Induction of cell cycle arrest in human NCI-H460 cells assessed as accumulation of cells at G2 phase at 8 uM incubated for 48 hrs by PI staining based flow cytometric analysis (reference value: 11.0 %); type: functional
[19] = test system: NCI-H460; test: Induction of autophagy in human NCI-H460 cells assessed as increase in vacuole formation incubated for 12 hrs by microscopic analysis; type: functional, cell-based
[20] = test system: NCI-H460; test: Induction of autophagy in human NCI-H460 cells assessed as increase in acidic vesicles incubated for 48 hrs by MDC staining and LC3B immunofluorescence analysis; type: functional, cell-based; conditions: dose 2-8 µM
[21] = test system: NCI-H460; test: Induction of autophagy in human NCI-H460 cells assessed as decrease in P62 expression at 2 to 8 uM incubated for 48 hrs by Western blotting analysis; type: functional, cell-based; conditions: dose 2-8 µM
[22] = test system: NCI-H460; test: Induction of autophagy in human NCI-H460 cells assessed as increase in LC3-II expression incubated for 48 hrs by Western blotting analysis; type: functional, cell-based; conditions: dose 2-8 µM
[23] = test system: NCI-H460; test: Induction of autophagy in human NCI-H460 cells assessed as increase in autophagic vesicles at 4 uM incubated for 24 hrs by transmission electron microscopic analysis; type: functional, cell-based
[24] = C0 in male Sprague-Dawley rat at 5 mg/kg, iv measured up to 24 hrs by LC-MS/MS analysis; type: ADME, organism-based; conditions: in vivo
[25] = AUC (0 to infinity) in male Sprague-Dawley rat at 5 mg/kg, iv measured up to 24 hrs by LC-MS/MS analysis; type: ADME, organism-based; conditions: in vivo
[26] = Half life in male Sprague-Dawley rat at 5 mg/kg, iv measured up to 24 hrs by LC-MS/MS analysis; type: ADME, organism-based; conditions: in vivo
[27] = MRT (0 to infinity) in male Sprague-Dawley rat at 5 mg/kg, iv measured up to 24 hrs by LC-MS/MS analysis; type: ADME, organism-based; conditions: in vivo
[28] = test system: NCI-H460; test: Antitumor activity against human NCI-H460 cells xenografted in female BALB/c nude mouse assessed as tumor growth inhibition at 50 mg/kg, ip administered for 21 consecutive days relative to control; type: functional; conditions: NCI-H460, 504 h, time 21 day, read-out: TGI
[29] = test system: NCI-H460; test: Antitumor activity against human NCI-H460 cells xenografted in female BALB/c nude mouse assessed as tumor growth inhibition at 25 mg/kg, ip administered for 21 consecutive days relative to control; type: functional; conditions: NCI-H460, 504 h, time 21 day, read-out: TGI
[30] = test system: NCI-H460; test: Antitumor activity against human NCI-H460 cells xenografted in female BALB/c nude mouse assessed as decrease in Ki67-positive cells at 50 mg/kg, ip administered for 21 consecutive days by immunohistochemical analysis; type: functional, organism-based; conditions: time 21.0 day
[31] = test system: NCI-H460; test: Antitumor activity against human NCI-H460 cells xenografted in female BALB/c nude mouse assessed as suppression of tumor volume at 50 mg/kg, ip administered for 21 consecutive days; type: functional, organism-based; conditions: time 21.0 day
[32] = Toxicity in mouse assessed as body weight change at 100 to 400 mg/kg, ip measured for 21 days; type: organism-based; conditions: in vivo, 504 h, dose 100-400 mg/kg, time 21 day
[33] = Toxicity in mouse assessed as histological change in spleen at 400 mg/kg, ip measured for 21 days by H and E staining based analysis; type: organism-based; conditions: in vivo, 504 h, time 21 day
[34] = Toxicity in mouse assessed as histological change in lung at 400 mg/kg, ip measured for 21 days by H and E staining based analysis; type: organism-based; conditions: in vivo, 504 h, time 21 day
[35] = test system: NCI-H460; test: cells; conditions: Homo sapiens, NCI-H460, 48 h
Description: Antitumor activity against human NCI-H460 cells assessed as inhibition of cell viability incubated for 48 hrs by MTT assay

T1 sequence (P11802 whole entry): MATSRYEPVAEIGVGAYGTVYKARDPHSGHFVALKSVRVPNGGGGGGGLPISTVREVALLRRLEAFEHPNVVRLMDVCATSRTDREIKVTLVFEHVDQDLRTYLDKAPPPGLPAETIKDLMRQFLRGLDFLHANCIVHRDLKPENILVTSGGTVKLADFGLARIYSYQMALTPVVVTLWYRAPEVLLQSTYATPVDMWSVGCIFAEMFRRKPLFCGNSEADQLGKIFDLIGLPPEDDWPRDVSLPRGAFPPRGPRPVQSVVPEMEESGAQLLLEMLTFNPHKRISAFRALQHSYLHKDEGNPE

SMILES: COc1cc(-c2nc3ccc(F)cc3c(=O)[nH]2)cc(OC)c1OCC(=O)N1CCN(c2ccc(Nc3ncc4cc(C(=O)N(C)C)n(C5CCCC5)c4n3)nc2)CC1
- Activity [1]: Dose-dependent-effect
- IC50 [2]: 0.0851 µM
- Activity [3]: Non-toxic
- Activity [4]: Active
- Activity [5]: Active
- Activity [6]: 9.06%
- Activity [7]: 1.6%
- Activity [8]: 8.81%
- Activity [9]: 1.06%
- Activity [10]: 3.07%
- Activity [11]: 1.17%
- Activity [12]: 60.6%
- Activity [13]: 11.4%
- Activity [14]: 71.1%
- Activity [15]: 7.15%
- Activity [16]: 80.8%
- Activity [17]: 15.8%
- Activity [18]: 3.41%
- Activity [19]: Active
- Activity [20]: Dose-dependent-effect
- Activity [21]: Active
- Activity [22]: Dose-dependent-effect
- Activity [23]: Active
- C0 at 24 h [24]: 6 µg/mL
- AUC(0-inf) [25]: 3.86 µg·h/mL
- half-life [26]: 7.42 h
- MRT inf [27]: 3.04 h
- inhibition in vivo at 50 mg/kg [28]: 85.3%
- inhibition in vivo at 25 mg/kg [29]: 67.8%
- Activity [30]: Active
- Activity [31]: Active
- Activity [32]: Non-toxic
- Activity [33]: Non-toxic
- Activity [34]: Non-toxic
- IC50 [35]: 2.21 µM
